Experiments:
HLE-B3 = HLE-B3 cell line; cited from earlier work
excised rat lenses = settings: concentrations typically micromolar; cited from earlier work
[1] = system: posterior capsule / capsular bag; settings: in the absence of TGF-β; cited from earlier work
FHL 124 cells = experiment: Patch contraction assay (TGF-β-induced matrix contraction); type: cell-based, human
Experimental: FIG. 2. […] FHL 124 cells were seeded to form patches, maintained in serum-free medium before exposure to experimental conditions. All cultures were maintained for 72 hours in 5% EMEM (Eagle's minimal essential medium) alone or 5% FCS (fetal calf serum) EMEM supplemented with 10 ng/mL TGF-β1 or -β2±the MMP inhibitor GM6001 (25 μM). (A) Visual representations of patch assay cultures in different experimental conditions. (B) Quantified data showing differences in patch area. (C) Data showing differences in cell populations between patch areas (Coomassie blue dye was extracted and quantified from the same experiment as presented in (B)). In FIGS. 2(B) and (C) each left hand bar of the bar pairs reports the result in the absence of GM6001 (indicated as “−GM6001” in the key) and the right hand bar reports the result in the presence of GM6001 (indicated as “+GM6001” in the key). Data represent mean±SEM. * Indicates a significant difference from unstimulated control cells. # Indicates a significant difference between siMMP2 treated cells and SCR siRNA counterparts (p≦0.05, ANOVA with the Tukey test).
FIG. 6. MMP2 is important for TGF-β-induced matrix contraction. FHL 124 cells were seeded to form patches, then transfected with siRNA targeted to MMP2 or SCR negative control and maintained in Optimem™ (Invitrogen Corporation; Optimem is a modified EMEM, buffered with HEPES and sodium bicarbonate and supplemented with hypoxanthine, thymidine, sodium pyruvate, L-glutamine or Glutamax, trace elements and growth factor; the protein level is minimal (15 μg/mL) with insulin and transferrin being the only protein supplements; phenol red is included as a pH indicator). Patches were measured after 72 hours of culture with 10 ng/mL TGF-β1 or […]. (A) Visual representations of patch assay cultures in different experimental conditions. (B) Quantified data showing differences in patch area. (C) Data showing differences in cell populations between patch areas (Coomassie blue dye was extracted and quantified from the same experiment as presented in (B)). In FIGS. 6(B) and (C) each left hand bar of the bar pairs reports the result with Scramble siRNA (indicated as “Scramble SiRNA” in the key) and the right hand bar reports the result in the presence of MMP2 specific siRNA (indicated as “MMP2 SiRNA” in the key). The data in (B) and (C) represent the mean±SEM (n≦4). *Indicates a significant difference from unstimulated control cells. # Indicates a significant difference between siMMP2 treated cells and SCR siRNA counterparts (p≦0.05, ANOVA with the Tukey test).
FIG. 7. MMP2 inhibition using neutralising antibody ([…]) prevents TGF-β2 (10 ng/ml)-induced matrix contraction assessed by patch assay. In FIG. 7(B) each left hand bar of the bar pairs reports the result in the absence of the antibody (indicated as “−4 μg/ml Anti MMP2” in the key) and the right hand bar reports the result in the presence of the antibody (indicated as “+4 μg/ml Anti MMP2” in the key). Data expressed as Mean±SEM (n=3).
FHL 124 cells were seeded at four sites on a tissue culture dish at 5000 cells in 25 μl and maintained in EMEM supplemented with 5% FCS until confluent regions spanning about 5 mm developed (Wormstone et al, Exp. Eye Res. (2004), 78, pages 705-14). The medium was then replaced with non-supplemented EMEM, and the cells were cultured for a further 24 hours, followed by the removal of medium from four patch culture dishes fixed for 30 minutes with 4% formaldehyde at room temperature, followed by washing in PBS. The patches were used as a t=0 reference control.
All remaining cell cultures were exposed to experimental conditions for up to 3 days. Experiments were terminated after the appearance of cell-free regions (holes) within the central region of the patch, by fixation for 30 minutes with 4% formaldehyde at room temperature. […]

[2] = 25 μM GM6001 in presence of 10 ng/ml TGF-β1 or TGF-β2, 72 hours

SMILES | TGF-β1-induced morphological change in the cells (HLE-B3) | occurrence of TGF-β-induced anterior subcapsular cataracts (ASCs) (excised rat lenses) | capsular bag contraction [1] | cell migration onto the posterior capsule surface [1] | effect on patch area relative to control (FHL 124 cells; 25 μM GM6001 alone (no TGF-β), 72 hours, vs control 5% FCS EMEM group) | formation of cell free zones (FHL 124 cells; [2]) | patch area vs un-stimulated control group (FHL 124 cells; [2]) | TGF-β-induced matrix contraction (FHL 124 cells; GM6001 25 μM, 10 ng/mL TGF-β1 or -β2, 72 hours (FIG. 2 legend)) | total protein content by Coomassie blue dye extraction (cell population) (FHL 124 cells; patches ± 10 ng/ml TGF-β1 or -β2 ± GM6001, 72 hours)
O=C(O)[C@@H](Cc1ccccc1)NS(=O)(=O)c1ccc(-c2ccccc2)cc1 [(2R)-2-[(4-biphenylylsulphonyl)amino]-3-phenylpropionic acid] | blocked | – | – | – | – | – | – | – | –
O=C(NO)[C@@H](Cc1ccccc1)NS(=O)(=O)c1ccc(-c2ccccc2)cc1 [(2R)-[(4-biphenylylsulfonyl)amino]-N-hydroxyl-3-phenylpropionamide] | – | prevents the occurrence | – | – | – | – | – | – | –
CNC(=O)[C@H](Cc1c[nH]c2ccccc12)NC(=O)[C@@H](CC(=O)NO)CC(C)C [GM6001, N-[(2R)-2-(hydroxamidocarbonylmethyl)-4-methylpentanoyl]-L-trypto-phan methylamide] | – | prevents the occurrence | suppress consequent capsular bag contraction | suppress cell migration onto the posterior capsule surface | no significant effect on patch area | suppressed the formation of cell free zones | did not significantly differ from the un-stimulated control group | prevents TGF-β-induced matrix contraction | no significant changes

Source: patent US20110236395A1, “TREATMENT OF FIBROTIC EYE DISORDERS USING AN MMP2 INHIBITOR” (UNIVERSITY OF EAST ANGLIA, priority 2008, published 2011)
